Values of other authors in patent US12083109B2, “Neurokinin antagonists and uses thereof” (California Institute of Technology, priority 2017, dated 2024).
Where two headings read alike, the source gives them in different places.

Biological target: T1, NK3R (Homo sapiens, UniProt P29371)
T1 construct: host or cells: human trial subjects
T1 sequence (P29371 1-465): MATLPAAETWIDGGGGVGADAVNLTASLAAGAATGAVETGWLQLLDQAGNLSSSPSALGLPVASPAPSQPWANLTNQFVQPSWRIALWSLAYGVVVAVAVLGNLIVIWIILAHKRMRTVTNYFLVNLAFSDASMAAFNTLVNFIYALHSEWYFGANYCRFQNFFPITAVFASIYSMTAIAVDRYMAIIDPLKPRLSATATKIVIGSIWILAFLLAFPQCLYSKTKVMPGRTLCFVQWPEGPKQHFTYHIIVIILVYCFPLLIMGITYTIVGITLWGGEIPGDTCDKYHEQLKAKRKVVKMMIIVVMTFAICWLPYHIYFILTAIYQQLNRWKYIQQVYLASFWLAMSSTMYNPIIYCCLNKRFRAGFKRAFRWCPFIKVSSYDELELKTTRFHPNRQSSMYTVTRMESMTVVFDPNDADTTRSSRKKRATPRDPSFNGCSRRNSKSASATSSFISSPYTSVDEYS
Conditions: cited from earlier work; for safety and tolerability in clinical trials: human, Phase I

CCC(NC(=O)c1c(O)c(-c2ccccc2)nc2ccccc12)c1ccccc1 (stereo not drawn) [Talnetant, 3-hydroxy-2-phenyl-N-(1-phenylpropyl)quinoline-4-carboxamide]
efficacy in schizophrenia and major depressive disorder (human trials, Phase II/III): lack of efficacy
safety and tolerability in clinical trials: exhibited safety
safety and tolerability in clinical trials (listed as talnetant): safe and well-tolerated
